Test: recombinant barcode read abundance after kanamycin selection (control-corrected) (log10(CPM+1)); higher = more efficient recombination; sequences stand for … in AGTGCAGAGAAAATCGGCCAGTTTTCTCTGCCTGCAGTCCGCATGCCGT…AGATTTATGCAGCGGACTGCCTTTCTCCCAAAGTGATAAACCGGACAGTATCATGGACCGGTTTTCCCGGTAATCCGTATTTGCAAGGTTGGTTTCACT; site = the 11-nt target
Procedure, shortened: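 The screen was pooled in E. coli and paired targets with IS621 bridge RNA target-binding loops. Recombination efficiency is taken from barcode counts per million at recombinant junctions, averaged and adjusted against the control. Values, in the form log10(CPM+1), come from duplicate plating on chloramphenicol/ampicillin LB agar or on chloramphenicol/ampicillin/kanamycin with 0.1 mM IPTG.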
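Also: IS621 recombinase and bridge RNA in Escherichia coli cells.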

Sequence	recombinant barcode read abundance (log10)
CCGGTAGCTTGGGTTCTAACCTGTTGCCA (site GCAGTAGCTTG)	0.556
GTTCCTACTTGGGTTCTAACCTGTTGCCT (site GATCCTACTAG)	0.215
TGACGTCCTTGGGTTCTAACCTGTTGCCT (site TGACGTCCTAT)	0.057
GACTTGCCTTGGGTTCTAACCTGTTGCCT (site GACTTGACTAG)	0.023
TGCGTCGCTTGGGTTCTAACCTGTTGCCT (site AGCGTCGCTAG)	0.149
GAAGGGCCTTGGGTTCTAACCTGTTGCCT (site GAAGTGCCTAG)	0.0531
ACGGACCCTTGGGTTCTAACCTGTTGCAT (site ACGGACCCTAT)	2.82
TTGGACACTTGGGTTCTAACCTGTTGCCT (site TTGGCCACTAG)	0.0571
CGCGAGTCTTGGGTTCTAACCTGTTGCTG (site TAATTTGCTAG)	0.142
CCAGGTACTTGGGTTCTAACCTGTTGCCT (site GCAGGTACTAG)	0.117
CCGACTCCTTGGGTTCTAACCTGTTGCCT (site CCGAATCCTAG)	0.0273
CTCGACACTTGGGTTCTAACCTGTTGCTG (site CTCGACACTCA)	1.6
TTCAAATCTTGGGTTCTAACCTGTTGCCT (site TTCAAACCTAG)	0.242
CCTGCTCCTTGGGTTCTAACCTGTTGCTT (site CCTACTCCTAG)	0.0276
CATCGCACTTGGGTTCTAACCTGTTGCCT (site CGTCGCACTAG)	0.153
TGTCGGACTTGGGTTCTAACCTGTTGCAC (site TGTCGGACTTT)	0.0148
ACTTAGACTTGGGTTCTAACCTGTTGCCC (site ACTTAGACTAG)	0.424
ACAGTAGCTTGGGTTCTAACCTGTTGCGG (site ACAGTAGCTCC)	1.81
GGAGCGTCTTGGGTTCTAACCTGTTGCGT (site GGAGCGTCTAC)	1.61
AACATACCTTGGGTTCTAACCTGTTGCCT (site ATCATTCCTAG)	0.564
GACATCGCTTGGGTTCTAACCTGTTGCCT (site GACATCCCTAG)	0.0326
CTACAACCTTGGGTTCTAACCTGTTGCTT (site CTACACCCTAA)	0.0399

Sequence	recombinant barcode read abundance (log10)
GGCACCACTTGGGTTCTAACCTGTTGCGT (site GGCACTACTAC)	0.108
ATGTAGTCTTGGGTTCTAACCTGTTGCCT (site TTGTCGTCTAG)	0.24
GAGTTGCCTTGGGTTCTAACCTGTTGCGG (site GAGTTGCCTCC)	2.32
ATGCGAGCTTGGGTTCTAACCTGTTGCGG (site ATGCGAGCTCG)	0.194
TCGGACCCTTGGGTTCTAACCTGTTGCGA (site TCGTACCCTTC)	0.23
CCTAAGACTTGGGTTCTAACCTGTTGCCT (site CCTAAGACTTG)	0.0542
GTGTCTCCTTGGGTTCTAACCTGTTGCCT (site ATGTCTCCTAG)	0.233
GATCGATCTTGGGTTCTAACCTGTTGCCT (site GATCGATCTAG)	0.663
CTATGTGCTTGGGTTCTAACCTGTTGCCT (site CTATGTGCTAT)	0.305
GTAGGGACTTGGGTTCTAACCTGTTGCCT (site GCAGGGACTAG)	0.806
CCTCACTCTTGGGTTCTAACCTGTTGCTT (site CCTCATTCTAA)	0.0602
CCGTAAGCTTGGGTTCTAACCTGTTGCCT (site CCGTAACCTAG)	0.0711
TGGCCTGCTTGGGTTCTAACCTGTTGCCT (site TGGCCTGCTAG)	0.868
CTTACTGCTTGGGTTCTAACCTGTTGCCT (site CTTACGGCTAG)	0.295
GAAGTACCTTGGGTTCTAACCTGTTGCCT (site TAAGTACCTAG)	0.873
CAGAGCTCTTGGGTTCTAACCTGTTGCCT (site CAGAGCTCTAG)	1.43
AGGCAGACTTGGGTTCTAACCTGTTGCCA (site AGGTAGACTTG)	0.639
ACAGTGTCTTGGGTTCTAACCTGTTGCGG (site ACACTGTCTCC)	0.0611
TAGCCTGCTTGGGTTCTAACCTGTTGCCT (site TAGCCTGCTAG)	1.35
CGGATCGCTTGGGTTCTAACCTGTTGCCT (site CGGATGGCTAG)	0.153
ATTGGTTCTTGGGTTCTAACCTGTTGCCT (site ATTGGTTCTAG)	1.22
AGGCTGACTTGGGTTCTAACCTGTTGCCT (site AGGCTGGCTAG)	0.0298

Sequence	recombinant barcode read abundance (log10)
CTACGTCCTTGGGTTCTAACCTGTTGCTA (site CTACGTCCTAA)	0.0386
GTCGGTACTTGGGTTCTAACCTGTTGCCT (site GTCGGTACTAG)	0.952
GGCCCGCCTTGGGTTCTAACCTGTTGCCT (site CGCCCGCCTAG)	0.00686
CTGGAGACTTGGGTTCTAACCTGTTGCTT (site AGAACTCCTTC)	0.0253
CAAGATGCTTGGGTTCTAACCTGTTGCCT (site CAGGATGCTAG)	0.222
AGCCTCCCTTGGGTTCTAACCTGTTGCCT (site AGTCTCCCTAG)	0.578
ATCGCTCCTTGGGTTCTAACCTGTTGCCT (site AGCGCTCCTAG)	0.122
CAATGGACTTGGGTTCTAACCTGTTGCCT (site CACTGGACTAG)	0.0334
GCGTCGTCTTGGGTTCTAACCTGTTGCCT (site GCTTCGTCTAG)	0.229
GAGCGCTCTTGGGTTCTAACCTGTTGCTT (site GAGCGCTCTTA)	0.269
CTACGCACTTGGGTTCTAACCTGTTGCTG (site CTACGCACTCA)	1.68
GTCGCGCCTTGGGTTCTAACCTGTTGCCT (site GTCGCGGCTAG)	0.219
TGCACCTCTTGGGTTCTAACCTGTTGCTA (site TGCACCTCTTA)	0.541
CTAGCGACTTGGGTTCTAACCTGTTGCGG (site CTAGCGACTCC)	1.85
TACTTACCTTGGGTTCTAACCTGTTGCCT (site TTCTTACCTAG)	0.0922
ACGCAGTCTTGGGTTCTAACCTGTTGCCT (site ACGCATTCTAG)	0.129
GTGTCACCTTGGGTTCTAACCTGTTGCCT (site GTGTCATCTAG)	0.091
ATAGCAACTTGGGTTCTAACCTGTTGCCT (site ATAGCTACTAG)	0.0705
TGTGGGTCTTGGGTTCTAACCTGTTGCCT (site TGTGGGTCTAG)	0.393
TAGCATGCTTGGGTTCTAACCTGTTGCAT (site TAGCATGCTAT)	0.434
CCTCAATCTTGGGTTCTAACCTGTTGCTT (site CCTCAGTCTAA)	0.0516
TCGAGTTCTTGGGTTCTAACCTGTTGCCT (site TCGAGTCCTAG)	0.0637

Sequence	recombinant barcode read abundance (log10)
CCTAACCCTTGGGTTCTAACCTGTTGCGT (site CCTAAACCTAC)	0.39
AAGCCCTCTTGGGTTCTAACCTGTTGCTT (site AAGACCTCTAA)	0.144
TTCCTAGCTTGGGTTCTAACCTGTTGCCA (site TTCCTAGCTTG)	0.109
CAACCTACTTGGGTTCTAACCTGTTGCCT (site CAATCTACTAG)	0.121
TCTTAGACTTGGGTTCTAACCTGTTGCTT (site TCTTAGACTAA)	0.17
GCACGGACTTGGGTTCTAACCTGTTGCAG (site GCACGGACTCT)	2.35
AATGGGCCTTGGGTTCTAACCTGTTGCGT (site AATTGGCCTAC)	0.765
ATCCAGCCTTGGGTTCTAACCTGTTGCCT (site ATCCACCCTAG)	0.0824
CGCTCATCTTGGGTTCTAACCTGTTGCCT (site CGATCATCTAG)	0.214
AGTTGGCCTTGGGTTCTAACCTGTTGCAG (site CTAACTACTAA)	0.313
ATGTTAGCTTGGGTTCTAACCTGTTGCCT (site ATGTAGGCTAG)	0.208
CCATGGACTTGGGTTCTAACCTGTTGCCT (site CCATGGACTAG)	0.252
GACAGGCCTTGGGTTCTAACCTGTTGCGT (site GACAGGCCTAC)	1.31
TACGCTCCTTGGGTTCTAACCTGTTGCGT (site TACGCTCCTAT)	0.501
AGTGGACCTTGGGTTCTAACCTGTTGCCC (site AGTGGACCTGG)	1.86
AAAGCTCCTTGGGTTCTAACCTGTTGCTT (site AAAGCTACTAG)	0.0734
CTGGGAACTTGGGTTCTAACCTGTTGCAG (site CTCGGAACTAT)	0.149
GTATGTGCTTGGGTTCTAACCTGTTGCAA (site GTATGTGCTTT)	0.769
ACTCACACTTGGGTTCTAACCTGTTGCTT (site GGAGCTCCTCG)	0.00954
GACCAGCCTTGGGTTCTAACCTGTTGCTT (site GACCAGCCTAA)	1.59
